Measured values published in PMC4769088, “Antifungal Activity and Action Mechanism of Histatin 5-Halocidin Hybrid Peptides against Candida ssp” (PLoS ONE, 2016).
Read-outs that look alike come from different tables or passages of the source. Where a SMILES comes first, the peptide text is derived from it. Bridges are numbered along the chain shown (N, C = ends). Roman numbers before positions name the chains, in order. Where no end group is shown, it is not given here.

How the values were obtained:
[1] = tested on: C.albicans CCARM 14020; format: cell-based, Candida albicans
Protocol: (§1) To determine the candidacidal activity of the peptides, we used Candida strains obtained from the Culture collection of antimicrobial resistant microbes at Seoul Women’s University in Korea. These included three Candida albicans (CCARM 14020, 14021, 14022), Candida guillermondi and Candida tropicalis. In addition, Candida albicans SC5413 was kindly provided by Dr Jeong-Yoon Kim at the Department of Microbiology & Molecular Biology, Chungnam University, Korea. Yeast were cultured overnight at 30°C in 10 ml of yeast extract-peptone-dextrose (YPD) broth (Qbiogene), then diluted in 10 ml of YPD broth to OD600 = 0.2 and grown for an additional 4 h with shaking at 30°C until OD600 = 0.8 in order to obtain mid-log phase cultures. The peptides (Hst 5, P113, HHP1, HHP2, PH1, PH2, di-PH1, di-PH2, WP1, di-WP2, di-15Hc and di-18Hc) in this study were synthesized by using standard solid-phase synthesis protocols and were purified by reversed-phase high-performance liquid chromatography at Anygen Inc. (Korea). FITC-labeled peptides (F-Hst5, F-P113, F-HHP1, F-di-PH2, F-di-WP2 and F-di-18Hc) were also synthesized by 6-aminohexnoic acid linker at Anygen (Korea) for confocal experiments.
(§2) The candidacidal activities of the peptides were tested by using standard microdilution plate assays, radial diffusion assays and broth dilution assay slightly modified from the procedure recommended by the National Committee for Clinical Laboratory Standards. For the candidacidal assays, C. albicans cells were grown in YPD medium and washed twice with 10 mM sodium phosphate buffer (NaPB; Na2HPO4, NaH2PO4, pH 7.4). The cells (1 x 10^6) were then mixed with different concentrations of peptides and incubated at 30°C with constant shaking for 60 min. For energy depletion experiments, cells were pre-incubated with 10 mM NaPB containing 5 mM NaN3 at 30°C for 60 min before the addition of peptides. The cell suspensions were diluted in 10 mM NaPB and aliquots of 500 cells were spread onto YPD agar plates then incubated for 24 h at 30°C to visualize the surviving colonies. Cell survival was expressed as a percentage of that for the control, and the loss of viability was calculated as [1 x (number of colonies from peptide-treated cells/number of colonies from control cells)] x 100. Candidacidal assays were performed in triplicate. For the radial diffusion assay, C. albicans cells were grown in YPD medium overnight and washed twice with 10 mM NaPB. Washed yeast-phase C. albicans cells (1 x 10^6 CFU) were trapped in thin underlay gels containing 9 mM sodium phosphate, 1 mM sodium citrate buffer, 1% (wt/vol) agarose (A6013; Sigma), and 0.3 mg of Sabouraud dextrose broth (Difco)/ml. After incubation at 37°C for 3 h, a 10 ml overlay gel of 1% agarose and 6% Sabouraud dextrose broth was poured on the underlay gel and then the plates were incubated overnight at 37°C. The clear-zone diameters were measured to the nearest 0.1 mm and graphed against the peptide concentration. Zone diameters were expressed in units (0.1 mm = 1 unit). For the broth dilution assay, the Candida strains were cultured in LYM broth for 18 h at 30°C. The numbers of yeasts were counted using a hemocytometer. Stock peptide solutions were prepared to a concentration of 320 μg/ml in distilled water, and were then serially diluted twofold, to 5 μg/ml. 100 μl aliquots of the diluted culture media containing candida cells (1 x 10^3) were dispensed into the wells of 96-well polypropylene microtiter plates (Costar 3879, Corning, NY), to which peptide solution (11 μl) was then added. In the experiments conducted to assess the candidacidal activity of peptides in the presence of salt, we used LYM supplemented with 150 mM NaCl for the culture medium, which was mixed with the peptide solution. The antifungal activities were evaluated after 24 h of incubation at 30°C by the observation of visible turbidity the wells. […]

[2] = tested on: C.albicans CCARM 14021; format: cell-based, Candida albicans
Protocol: as §1, §2

[3] = tested on: C.albicans CCARM 14022; format: cell-based, Candida albicans
Protocol: as §1, §2

[4] = tested on: C.albicans SC5413; format: cell-based, Candida albicans
Protocol: as §1, §2

[5] = tested on: C. guilliermondi CCARM 14018; format: cell-based
Protocol: as §1, §2

[6] = tested on: C. guilliermondi CCARM 14019; format: cell-based
Protocol: as §1, §2

[7] = tested on: Candida cells; test: ROS production (DCFH-DA fluorometric assay); format: cell-based, Candida albicans; settings: 32 μg/ml peptide, 120 min, 10 μM DCFH-DA, ex 485 / em 530 nm
Protocol: The amount of ROS produced by Candida cells treated with peptides was measured by a fluorometric assay with DCFHDA as described earlier. Briefly, the cells were adjusted to an OD600 of 1 in 10 ml of NaPB and centrifuged at 5000 ×g for 10 min. The cell pellet was then resuspended in NaPB and treated with peptides alone or with ascorbic acid. After the addition of 10 μM 2`,7`dichlorofluorescein diacetate (DCFH-DA), the fluorescence intensity of the induced ROS production was recorded every 10 min at excitation and emission wavelengths of 485 nm and 530 nm, respectively, in a Perkin Elmer 2030 Reader (Victor X3).  Fig 7 The effect of peptides on ROS generation. Time-dependency of DCF fluorescence as a measure of ROS generation (A) and killing activity (B) were determined in Candida cells treated with peptides (32 μg/ml) or peptides + Ascorbic acid (200 μg/ml) by Perkin Elmer 2030 reader (VictorX 3) and colony count assay, respectively. The fluorescence obtained with the cells treated with 10 mM of H2O2 served as positive control and the cells without peptide served as negative control. The fluorescent intensity of DCF was recorded every 10 min for 120 min at excitation and emission wavelengths of 485 and 530 nm, respectively.

[8] = CD spectra, secondary structure analysis; format: physicochemical; settings: solvent Laminarin (20 mg/ml in buffer), 200 μg/ml peptide
[9] = tested on: C. tropicalis; test: Broth dilution assay (MIC); format: cell-based, Candida tropicalis
Protocol: as §1
The candidacidal activities of the peptides were tested by using standard microdilution plate assays, radial diffusion assays and broth dilution assay slightly modified from the procedure recommended by the National Committee for Clinical Laboratory Standards. For the candidacidal assays, C. albicans cells were grown in YPD medium and washed twice with 10 mM sodium phosphate buffer (NaPB; Na2HPO4, NaH2PO4, pH 7.4). The cells (1 x 10^6) were then mixed with different concentrations of peptides and incubated at 30°C with constant shaking for 60 min. For energy depletion experiments, cells were pre-incubated with 10 mM NaPB containing 5 mM NaN3 at 30°C for 60 min before the addition of peptides. The cell suspensions were diluted in 10 mM NaPB and aliquots of 500 cells were spread onto YPD agar plates then incubated for 24 h at 30°C to visualize the surviving colonies. Cell survival was expressed as a percentage of that for the control, and the loss of viability was calculated as [1 x (number of colonies from peptide-treated cells/number of colonies from control cells)] x 100. Candidacidal assays were performed in triplicate. For the radial diffusion assay, C. albicans cells were grown in YPD medium overnight and washed twice with 10 mM NaPB. […] The clear-zone diameters were measured to the nearest 0.1 mm and graphed against the peptide concentration. […] The numbers of yeasts were counted using a hemocytometer. […] The antifungal activities were evaluated after 24 h of incubation at 30°C by the observation of visible turbidity the wells. […]

[10] = NaCl 150 mM, LYM supplemented with 150 mM NaCl, 24 h at 30°C

Compound	MICs ([1]; CCARM 14020, 24 h)	MICs [1, 10]	MICs ([2]; CCARM 14021, 24 h)	MICs [2, 10]	MICs ([3]; CCARM 14022, 24 h)	MICs [3, 10]	MICs [4, 10]	MICs ([4]; SC5413, 24 h)	MICs ([5]; CCARM 14018, 24 h)	MICs [5, 10]	MICs ([6]; CCARM 14019, 24 h)	MICs [6, 10]	DCF fluorescence intensity (ROS generation) [7]	Secondary structure (%) Beta [8]	Secondary structure (%) Helix [8]	Secondary structure (%) Random [8]	Secondary structure (%) Turn [8]	killing activities against C. tropicalis in 150 mM NaCl salt [9]	increase in MIC against C. tropicalis at 150 mM salt ([9]; 150 mM NaCl versus no salt)
AKRHHGYKRKFH-NH2 [P113]	4 to 8 µg/mL	32< μg/ml	4 to 8 µg/mL	32< μg/ml	8 to 16 µg/mL	32< μg/ml	32< μg/ml	4 to 8 µg/mL	0.5 to 1 µg/mL	32< μg/ml	0.5 to 1 µg/mL	32< μg/ml	constant increase in fluorescence intensity	0.2%	2.8%	72.2%	24.7%		
CC(C)C[C@H](NC(=O)CNC(=O)[C@H](Cc1c[nH]cn1)NC(=O)[C@H](Cc1c[nH]cn1)NC(=O)[C@H](CC(C)C)NC(=O)[C@H](CC(C)C)NC(=O)[C@H](C)NC(=O)[C@H](CC(N)=O)NC(=O)[C@H](CC(C)C)NC(=O)[C@@H](N)Cc1c[nH]c2ccccc12)C(=O)N[C@@H](CC(N)=O)C(=O)N[C@@H](CSSC[C@H](NC(=O)[C@H](CC(N)=O)NC(=O)[C@H](CC(C)C)NC(=O)CNC(=O)[C@H](Cc1c[nH]cn1)NC(=O)[C@H](Cc1c[nH]cn1)NC(=O)[C@H](CC(C)C)NC(=O)[C@H](CC(C)C)NC(=O)[C@H](C)NC(=O)[C@H](CC(N)=O)NC(=O)[C@H](CC(C)C)NC(=O)[C@@H](N)Cc1c[nH]c2ccccc12)C(=O)N[C@@H](C)C(=O)N[C@@H](CCCCN)C(=O)NCC(=O)N[C@H](C(=O)N[C@@H](CC(C)C)C(=O)N[C@@H](C)C(N)=O)C(C)C)C(=O)N[C@@H](C)C(=O)N[C@@H](CCCCN)C(=O)NCC(=O)N[C@H](C(=O)N[C@@H](CC(C)C)C(=O)N[C@@H](C)C(N)=O)C(C)C [di-18Hc, reference compound] (I: H-WLNALLHHGLNCAKGVLA-NH2 / II: H-WLNALLHHGLNCAKGVLA-NH2; disulfide I:12-II:12 (inferred); N-terminus assumed)											4 to 8 µg/mL		little fluorescence	29.7%	29.2%	30.3%	10.8%	retained	
C[C@H](NC(=O)[C@H](Cc1c[nH]cn1)NC(=O)[C@H](CO)NC(=O)[C@@H](N)CC(=O)O)C(=O)N[C@@H](CCCCN)C(=O)N[C@@H](CCCNC(=N)N)C(=O)N[C@@H](Cc1c[nH]cn1)C(=O)N[C@@H](Cc1c[nH]cn1)C(=O)NCC(=O)N[C@@H](Cc1ccc(O)cc1)C(=O)N[C@@H](CCCCN)C(=O)N[C@@H](CCCNC(=N)N)C(=O)N[C@@H](CCCCN)C(=O)N[C@@H](Cc1ccccc1)C(=O)N[C@@H](Cc1c[nH]cn1)C(=O)N[C@@H](CCC(=O)O)C(=O)N[C@@H](CCCCN)C(=O)N[C@@H](Cc1c[nH]cn1)C(=O)N[C@@H](Cc1c[nH]cn1)C(=O)N[C@@H](CO)C(=O)N[C@@H](Cc1c[nH]cn1)C(=O)N[C@@H](CCCNC(=N)N)C(=O)NCC(=O)N[C@@H](Cc1ccc(O)cc1)C(=O)O [Hst 5, Histatin 5]	8 to 16 µg/mL	32< μg/ml	4 to 8 µg/mL	32< μg/ml	8 to 16 µg/mL	32< μg/ml	32< μg/ml	8 to 16 µg/mL	1 to 2 µg/mL	32< μg/ml	2 to 4 µg/mL	32< μg/ml	constant increase in fluorescence intensity	21.7%	0.0%	62%	16.3%		
CC(C)C[C@H](NC(=O)CNC(=O)[C@H](Cc1c[nH]cn1)NC(=O)[C@H](Cc1c[nH]cn1)NC(=O)[C@H](CCCNC(=N)N)NC(=O)[C@H](CCCCN)NC(=O)[C@H](C)N)C(=O)N[C@@H](CC(N)=O)C(=O)N[C@@H](CSSC[C@H](NC(=O)[C@H](CC(N)=O)NC(=O)[C@H](CC(C)C)NC(=O)CNC(=O)[C@H](Cc1c[nH]cn1)NC(=O)[C@H](Cc1c[nH]cn1)NC(=O)[C@H](CCCNC(=N)N)NC(=O)[C@H](CCCCN)NC(=O)[C@H](C)N)C(=O)N[C@@H](C)C(=O)N[C@@H](CCCCN)C(=O)N[C@@H](Cc1ccccc1)C(=O)N[C@@H](Cc1c[nH]cn1)C(N)=O)C(=O)N[C@@H](C)C(=O)N[C@@H](CCCCN)C(=O)N[C@@H](Cc1ccccc1)C(=O)N[C@@H](Cc1c[nH]cn1)C(N)=O [di-PH2] (I: H-AKRHHGLNCAKFH-NH2 / II: H-AKRHHGLNCAKFH-NH2; disulfide I:9-II:9 (inferred); N-terminus assumed)	1 to 2 µg/mL	32< μg/ml	1 to 2 µg/mL	32< μg/ml	2 to 4 µg/mL	32< μg/ml	32< μg/ml	1 to 2 µg/mL		32< μg/ml			constant increase in fluorescence intensity	0.0%	20.5%	61.1%	18.4%	retained	2 fold
